Reference: patent publication US20250263408A1 (Uniquest Pty Ltd, priority 2022, published 2025)

Key:
Ba/F3-Syk cells = biological target: T1, Ba/F3-Syk cells (Homo sapiens, UniProt P43405); assay: Ba/F3 Proliferation Assay, Ba/F3-Syk cells (Resazurin); assay type: cell-based; conditions: 48-hour incubation
T1 construct: fused on or other part: Possible but unprinted fusion partner: TEL (ETV6), the usual partner for Ba/F3 lines transformed by Syk; Nothing on a partner is printed

[1] = test system: Ba/F3-WT (wild type) cells; assay: Ba/F3 Proliferation Assay, Ba/F3-WT (wild type) cells with mIL-3 (Resazurin); assay type: cell-based; conditions: Mus musculus, BaF3, 48 h, Ba/F3-WT cells +mIL-3, 48-hour incubation

Structure (SMILES) | EC50 (Ba/F3-Syk cells) | EC50 [1]
CC(C)n1cc(-c2cc3ncccc3c(O[C@H](C)[C@@H]3CNCC(C)(C)O3)n2)cn1 [Compound 2.84, 5-[(1R)-1-[(2S)-6,6-dimethylmorpholin-2-yl]ethoxy]-7-[1-(propan-2-yl)-1H-pyrazol-4-yl]-1,6-naphthyridine] | 22.3 nM | 2210 nM
CC(C)(C)c1ccc(-c2cc(OC[C@@H]3CNCCO3)c3cccnc3c2)s1 [Compound 14.5, 7-(5-tert-butylthiophen-2-yl)-5-{[(2S)-morpholin-2-yl]methoxy}quinoline] | 428 nM | 1200 nM
CCn1ccc(-c2cc(OC[C@@H]3CNCCO3)c3cccnc3c2)c1 [Compound 7.20, 7-(1-ethyl-1H-pyrrol-3-yl)-5-{[(2S)-morpholin-2-yl]methoxy}quinoline] | 40 nM | 1690 nM
CC(C)n1cc(-c2cc3ncccc3c(OC[C@@H]3CNCCCO3)n2)cn1 [Compound 2.70, 5-{[(2S)-1,4-oxazepan-2-yl]methoxy}-7-[1-(propan-2-yl)-1H-pyrazol-4-yl]-1,6-naphthyridine] | 19.1 nM | 1540 nM
Cn1cc(-c2cc3ncccc3c(OCC3CNCCCO3)n2)cn1 (centres unmarked) [Compound 2.41, 7-(1-methyl-1H-pyrazol-4-yl)-5-[(1,4-oxazepan-2-yl)methoxy]-1,6-naphthyridine] | 127 nM | 2320 nM
CC(C)(C)n1cc(-c2cc3ncccc3c(OC[C@H]3CNCCCO3)n2)cn1 [Compound 2.59, 7-(1-tert-butyl-1H-pyrazol-4-yl)-5-{[(2R)-1,4-oxazepan-2-yl]methoxy}-1,6-naphthyridine] | 58.9 nM | 985 nM
CC(F)(F)Cn1cc(-c2cc3ncccc3c(OC[C@@H]3CNCCO3)n2)cn1 [Compound 6.40, 7-[1-(2,2-difluoropropyl)-1H-pyrazol-4-yl]-5-{[(2S)-morpholin-2-yl]methoxy}-1,6-naphthyridine] | 59.8 nM | 1440 nM
Cn1ccc(-c2cc3ncccc3c(OC[C@@]3(C)CNCCO3)n2)c1 [Compound 10.9, 7-(1-methyl-1H-pyrrol-3-yl)-5-{[(2R)-2-methylmorpholin-2-yl]methoxy}-1,6-naphthyridine] | 148 nM | 7040 nM
CC(C)n1ccc(-c2cc(OC[C@@H]3CNC[C@@H](C)O3)c3nccnc3c2)c1 [Compound 8.23, 5-{[(2S,6R)-6-methylmorpholin-2-yl]methoxy}-7-[1-(propan-2-yl)-1H-pyrrol-3-yl]quinoxaline] | 2.7 nM | 421 nM
Cc1cc(-c2cc3ncccc3c(OC[C@@H]3CNCCO3)n2)c(C)n1C [Compound 2.40, 5-{[(2S)-morpholin-2-yl]methoxy}-7-(1,2,5-trimethyl-1H-pyrrol-3-yl)-1,6-naphthyridine] | 645 nM | > 10000 nM
Cn1cc(-c2cc3ncccc3c(O[C@H]([C@@H]3CNCCO3)C(F)(F)F)n2)cn1 [Compound 10.2, 7-(1-methyl-1H-pyrazol-4-yl)-5-[(1R)-2,2,2-trifluoro-1-[(2S)-morpholin-2-yl]ethoxy]-1,6-naphthyridine] | 839 nM | > 10000 nM
c1cnc2cc(-c3cnn4c3CCCC4)nc(OC[C@@H]3CNCCO3)c2c1 [Compound 10.4, 5-{[(2S)-morpholin-2-yl]methoxy}-7-{4H,5H,6H,7H-pyrazolo[1,5-a]pyridin-3-yl}-1,6-naphthyridine] | 663 nM | 8090 nM
C[C@H]1CNC[C@@H](COc2nc(-c3cnn(C)c3)cc3ncccc23)O1 [Compound 2.74, 7-(1-methyl-1H-pyrazol-4-yl)-5-{[(25,6S)-6-methylmorpholin-2-yl]methoxy}-1,6-naphthyridine] | 109 nM | 2880 nM
CC1(C)CNC[C@@H](COc2nc(-c3ccn(CC4CC4)c3)cc3ncccc23)O1 [Compound 6.15, 7-[1-(cyclopropylmethyl)-1H-pyrrol-3-yl]-5-{[(2S)-6,6-dimethylmorpholin-2-yl]methoxy}-1,6-naphthyridine] | 20.3 nM | 2340 nM
CC(C)(C)n1cc(-c2cc(OC[C@@H]3CNCC4(CC4)O3)c3cccnc3c2)cn1 [Compound 3.20, 7-(1-tert-butyl-1H-pyrazol-4-yl)-5-{[(5S)-4-oxa-7-azaspiro[2.5]octan-5-yl]methoxy}quinoline] | 35.5 nM | 1960 nM
Cn1cc(-c2cc3ncccc3c(OC[C@H]3CN[C@@H]4CCC[C@@H]4O3)n2)cn1 [Compound 2.72, 5-{[(2R,4aR,7aS)-octahydrocyclopenta[b][1,4]oxazin-2-yl]methoxy}-7-(1-methyl-1H-pyrazol-4-yl)-1,6-naphthyridine] | 266 nM | 1900 nM
C[C@@H](Oc1cc(-c2ccn(CC(F)F)c2)cc2nccnc12)[C@@H]1CNCCO1 [Compound 8.15, 7-[1-(2,2-difluoroethyl)-1H-pyrrol-3-yl]-5-[(1R)-1-[(2S)-morpholin-2-yl]ethoxy]quinoxaline] | 8.9 nM | 358 nM
Cn1cc(-c2cc3ncccc3c(OC[C@@H]3CN[C@H]4CCC[C@H]4O3)n2)cn1 (racemic) [Compound 2.53, 5-{[rel-(2R,4aR,7aS)-octahydrocyclopenta[b][1,4]oxazin-2-yl]methoxy}-7-(1-methyl-1H-pyrazol-4-yl)-1,6-naphthyridine] | 129 nM | 2560 nM
CC(F)(F)Cn1cc(-c2cc3ncccc3c(OC[C@@H]3CNCC(C)(C)O3)n2)cn1 [Compound 6.39, 7-[1-(2,2-difluoropropyl)-1H-pyrazol-4-yl]-5-{[(2S)-6,6-dimethylmorpholin-2-yl]methoxy}-1,6-naphthyridine] | 21.4 nM | 1520 nM
c1cnc2cc(-c3cnn([C@H]4CCOC4)c3)nc(OC[C@@H]3CNCCO3)c2c1 [Compound 6.44, 5-{[(2S)-morpholin-2-yl]methoxy}-7-{1-[(3S)-oxolan-3-yl]-1H-pyrazol-4-yl}-1,6-naphthyridine] | 32.9 nM | > 1000 nM
C[C@@H]1NCCO[C@@H]1COc1nc(-c2cnn(C(C)(C)C)c2)cc2ncccc12 [Compound 13.6, 7-(1-tert-butyl-1H-pyrazol-4-yl)-5-{[(2S,3S)-3-methylmorpholin-2-yl]methoxy}-1,6-naphthyridine] | 36.2 nM | 5560 nM
CC(C)n1ccc(-c2cc(OC[C@@H]3CNCC(C)(C)O3)c3cccnc3c2)c1 [Compound 7.4, 5-{[(2S)-6,6-dimethylmorpholin-2-yl]methoxy}-7-[1-(propan-2-yl)-1H-pyrrol-3-yl]quinoline] | 29.7 nM | 2690 nM
CCn1ccc(-c2cc(O[C@H](C)[C@@H]3CNCCO3)c3nccnc3c2)c1 [Compound 8.14, 7-(1-ethyl-1H-pyrrol-3-yl)-5-[(1R)-1-[(2S)-morpholin-2-yl]ethoxy]quinoxaline] | 8.3 nM | 435 nM
CC1(C)CNC[C@@H](COc2nc(-c3cnn(C(C)(C)C)c3)cc3ncccc23)OC1 [Compound 10.11, 7-(1-tert-butyl-1H-pyrazol-4-yl)-5-{[(2S)-6,6-dimethyl-1,4-oxazepan-2-yl]methoxy}-1,6-naphthyridine] | 80.8 nM | 4140 nM
CC(C)n1cc(-c2cc3ncccc3c(OC[C@@H]3CNCC4(CCC4)O3)n2)cn1 [Compound 2.56, 5-{[(6S)-5-oxa-8-azaspiro[3.5]nonan-6-yl]methoxy}-7-[1-(propan-2-yl)-1H-pyrazol-4-yl]-1,6-naphthyridine] | 32.9 nM | 1460 nM
